Measured values reported in PMC6409085, “Three odorant-binding proteins are involved in the behavioral response of Sogatella furcifera to rice plant volatiles” (PeerJ, 2019).
Values joined by “and” are separate entries in the source; they are usually repeats but may differ in a detail not shown here. Equal entries are not always repeated.

Assays:
Experiment in all cases: biochemical
Assay type in all cases: binding
SfurOBP1 = SfurOBP1 (Sogatella furcifera, UniProt V5T8N5); details: for Fluorescence competitive binding assay, fluorescence intensity: OBP1, three replicate columns
Sequence of SfurOBP1 (V5T8N5 entry or part of it): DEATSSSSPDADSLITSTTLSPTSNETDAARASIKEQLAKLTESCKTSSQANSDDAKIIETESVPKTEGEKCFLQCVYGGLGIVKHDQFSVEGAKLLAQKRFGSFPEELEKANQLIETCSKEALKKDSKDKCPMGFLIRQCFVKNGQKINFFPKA
Method in brief: (§1)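 In 50 mM Tris-HCl pH 7.4, odorants displace 1-NPN (2.0 µM) from 2.0 µM protein. Emission at 390–490 nm under 337 nm excitation is measured 2 min after competitor addition, in triplicate. Ki is obtained from IC50 and the 1-NPN dissociation constant.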

SfurOBP11 = SfurOBP11 (Sogatella furcifera, UniProt V5T6E3)
Sequence of SfurOBP11 (V5T6E3 entry or part of it): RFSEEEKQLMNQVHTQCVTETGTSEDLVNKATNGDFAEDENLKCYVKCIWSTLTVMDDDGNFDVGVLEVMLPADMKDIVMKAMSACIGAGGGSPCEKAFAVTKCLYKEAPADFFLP
Method in brief: as §1

SfurOBP2 = SfurOBP2 (Sogatella furcifera, UniProt V5T759)
Sequence of SfurOBP2 (V5T759 entry or part of it): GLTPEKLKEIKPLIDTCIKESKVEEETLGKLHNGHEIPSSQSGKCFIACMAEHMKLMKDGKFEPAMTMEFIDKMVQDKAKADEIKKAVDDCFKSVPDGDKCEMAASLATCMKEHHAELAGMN
Method in brief: as §1

SfurOBP3 = SfurOBP3 (Sogatella furcifera, UniProt V5T818); details: for Fluorescence competitive binding assay, fluorescence intensity: OBP3, three replicate columns
Sequence of SfurOBP3 (V5T818 entry or part of it): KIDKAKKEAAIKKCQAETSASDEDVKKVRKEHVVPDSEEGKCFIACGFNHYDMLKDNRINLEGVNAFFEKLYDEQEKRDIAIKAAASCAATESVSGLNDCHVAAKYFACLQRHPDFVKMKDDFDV
Method in brief: as §1

With `CCCCCCCCCCCCCCCC` [n-hexadecane] the “Fluorescence competitive binding assay, fluorescence intensity” value (SfurOBP1; ligand concentration 2 (μM)) was 5137 and 5021 and 5229, the “Fluorescence competitive binding assay, fluorescence intensity” value (SfurOBP1; ligand concentration 4 (μM)) was 5910 and 6306 and 5547 and the “Fluorescence competitive binding assay, fluorescence intensity” value (SfurOBP1; ligand concentration 6 (μM)) was 6300 and 6430 and 6367. For the same compound, the “Fluorescence competitive binding assay, fluorescence intensity” value (SfurOBP1; ligand concentration 8 (μM)) was 6419 and 6500 and 6466, the “Fluorescence competitive binding assay, fluorescence intensity” value (SfurOBP1; ligand concentration 10 (μM)) was 6532 and 6517 and 6502 and the “Fluorescence competitive binding assay, fluorescence intensity” value (SfurOBP1; ligand concentration 12 (μM)) was 6620 and 6292 and 6471. For the same compound, the “Fluorescence competitive binding assay, fluorescence intensity” value (SfurOBP1; ligand concentration 14 (μM)) was 6713 and 6503 and 6353, the “Fluorescence competitive binding assay, fluorescence intensity” value (SfurOBP1; ligand concentration 16 (μM)) was 6541 and 6507 and 6533 and the “Fluorescence competitive binding assay, fluorescence intensity” value (SfurOBP1; ligand concentration 18 (μM)) was 7558 and 7106 and 6654. The “Fluorescence competitive binding assay, fluorescence intensity” value (SfurOBP1; ligand concentration 20 (μM)) was 6949 and 7724 and 7337, the IC50 (SfurOBP1; SfurOBP1, protein and 1-NPN both 2.0 µM, competitor 2-20 µM, read-out: IC50) was greater than 20 µM and the IC50 (SfurOBP11; SfurOBP11, protein and 1-NPN both 2.0 µM, competitor 2-20 µM, read-out: IC50) was greater than 20 µM. For the same compound, the “Fluorescence intensity, fluorescence competitive binding assay, OBP11” value (“Fluorescence intensity … OBP11” for short) (SfurOBP11; ligand concentration 2, replicate 1) was 21809, the “Fluorescence intensity … OBP11” value (SfurOBP11; ligand concentration 2, replicate 2) was 24436 and the “Fluorescence intensity … OBP11” value (SfurOBP11; ligand concentration 2, replicate 3) was 21028. The “Fluorescence intensity … OBP11” value (SfurOBP11; ligand concentration 4, replicate 1) was 21555, the “Fluorescence intensity … OBP11” value (SfurOBP11; ligand concentration 4, replicate 2) was 21532 and the “Fluorescence intensity … OBP11” value (SfurOBP11; ligand concentration 4, replicate 3) was 20733. For the same compound, the “Fluorescence intensity … OBP11” value (SfurOBP11; ligand concentration 6, replicate 1) was 20973, the “Fluorescence intensity … OBP11” value (SfurOBP11; ligand concentration 6, replicate 2) was 20501 and the “Fluorescence intensity … OBP11” value (SfurOBP11; ligand concentration 6, replicate 3) was 20737. The “Fluorescence intensity … OBP11” value (SfurOBP11; ligand concentration 8, replicate 1) was 20324, the “Fluorescence intensity … OBP11” value (SfurOBP11; ligand concentration 8, replicate 2) was 20139 and the “Fluorescence intensity … OBP11” value (SfurOBP11; ligand concentration 8, replicate 3) was 20508. For the same compound, the “Fluorescence intensity … OBP11” value (SfurOBP11; ligand concentration 10, replicate 1) was 20121, the “Fluorescence intensity … OBP11” value (SfurOBP11; ligand concentration 10, replicate 2) was 20422 and the “Fluorescence intensity … OBP11” value (SfurOBP11; ligand concentration 10, replicate 3) was 20353. For the same compound, the “Fluorescence intensity … OBP11” value (SfurOBP11; ligand concentration 12, replicate 1) was 19850, the “Fluorescence intensity … OBP11” value (SfurOBP11; ligand concentration 12, replicate 2) was 19980 and the “Fluorescence intensity … OBP11” value (SfurOBP11; ligand concentration 12, replicate 3) was 19737. The “Fluorescence intensity … OBP11” value (SfurOBP11; ligand concentration 14, replicate 1) was 21701, the “Fluorescence intensity … OBP11” value (SfurOBP11; ligand concentration 14, replicate 2) was 22333 and the “Fluorescence intensity … OBP11” value (SfurOBP11; ligand concentration 14, replicate 3) was 21069. The “Fluorescence intensity … OBP11” value (SfurOBP11; ligand concentration 16, replicate 1) was 21665, the “Fluorescence intensity … OBP11” value (SfurOBP11; ligand concentration 16, replicate 2) was 22169 and the “Fluorescence intensity … OBP11” value (SfurOBP11; ligand concentration 16, replicate 3) was 22138. For the same compound, the “Fluorescence intensity … OBP11” value (SfurOBP11; ligand concentration 18, replicate 1) was 22525, the “Fluorescence intensity … OBP11” value (SfurOBP11; ligand concentration 18, replicate 2) was 23830 and the “Fluorescence intensity … OBP11” value (SfurOBP11; ligand concentration 18, replicate 3) was 23178. For the same compound, the “Fluorescence intensity … OBP11” value (SfurOBP11; ligand concentration 20, replicate 1) was 23218, the “Fluorescence intensity … OBP11” value (SfurOBP11; ligand concentration 20, replicate 2) was 23600 and the “Fluorescence intensity … OBP11” value (SfurOBP11; ligand concentration 20, replicate 3) was 23432. The IC50 (SfurOBP2; SfurOBP2, protein and 1-NPN both 2.0 µM, competitor 2-20 µM, read-out: IC50) was 17.4 µM, the “Fluorescence competitive binding assay, OBP2 (raw fluorescence reading)” value (SfurOBP2; ligand concentration 2 (unit not given), replicate column 1 of 3) was 13495 and the “Fluorescence competitive binding assay, OBP2 (raw fluorescence reading)” value (SfurOBP2; ligand concentration 2 (unit not given), replicate column 2 of 3) was 16165. For the same compound, the “Fluorescence competitive binding assay, OBP2 (raw fluorescence reading)” value (SfurOBP2; ligand concentration 2 (unit not given), replicate column 3 of 3) was 17504, the “Fluorescence competitive binding assay, OBP2 (raw fluorescence reading)” value (SfurOBP2; ligand concentration 4 (unit not given), replicate column 1 of 3) was 14292 and the “Fluorescence competitive binding assay, OBP2 (raw fluorescence reading)” value (SfurOBP2; ligand concentration 4 (unit not given), replicate column 2 of 3) was 14770. The “Fluorescence competitive binding assay, OBP2 (raw fluorescence reading)” value (SfurOBP2; ligand concentration 4 (unit not given), replicate column 3 of 3) was 18258, the “Fluorescence competitive binding assay, OBP2 (raw fluorescence reading)” value (SfurOBP2; ligand concentration 6 (unit not given), replicate column 1 of 3) was 13188 and the “Fluorescence competitive binding assay, OBP2 (raw fluorescence reading)” value (SfurOBP2; ligand concentration 6 (unit not given), replicate column 2 of 3) was 14373. The “Fluorescence competitive binding assay, OBP2 (raw fluorescence reading)” value (SfurOBP2; ligand concentration 6 (unit not given), replicate column 3 of 3) was 14976, the “Fluorescence competitive binding assay, OBP2 (raw fluorescence reading)” value (SfurOBP2; ligand concentration 8 (unit not given), replicate column 1 of 3) was 12682 and the “Fluorescence competitive binding assay, OBP2 (raw fluorescence reading)” value (SfurOBP2; ligand concentration 8 (unit not given), replicate column 2 of 3) was 13401. The “Fluorescence competitive binding assay, OBP2 (raw fluorescence reading)” value (SfurOBP2; ligand concentration 8 (unit not given), replicate column 3 of 3) was 14572, the “Fluorescence competitive binding assay, OBP2 (raw fluorescence reading)” value (SfurOBP2; ligand concentration 10 (unit not given), replicate column 1 of 3) was 12390 and the “Fluorescence competitive binding assay, OBP2 (raw fluorescence reading)” value (SfurOBP2; ligand concentration 10 (unit not given), replicate column 2 of 3) was 12956. The “Fluorescence competitive binding assay, OBP2 (raw fluorescence reading)” value (SfurOBP2; ligand concentration 10 (unit not given), replicate column 3 of 3) was 13308, the “Fluorescence competitive binding assay, OBP2 (raw fluorescence reading)” value (SfurOBP2; ligand concentration 12 (unit not given), replicate column 1 of 3) was 11320 and the “Fluorescence competitive binding assay, OBP2 (raw fluorescence reading)” value (SfurOBP2; ligand concentration 12 (unit not given), replicate column 2 of 3) was 12682. The “Fluorescence competitive binding assay, OBP2 (raw fluorescence reading)” value (SfurOBP2; ligand concentration 12 (unit not given), replicate column 3 of 3) was 13112, the “Fluorescence competitive binding assay, OBP2 (raw fluorescence reading)” value (SfurOBP2; ligand concentration 14 (unit not given), replicate column 1 of 3) was 11586 and the “Fluorescence competitive binding assay, OBP2 (raw fluorescence reading)” value (SfurOBP2; ligand concentration 14 (unit not given), replicate column 2 of 3) was 11754. The “Fluorescence competitive binding assay, OBP2 (raw fluorescence reading)” value (SfurOBP2; ligand concentration 14 (unit not given), replicate column 3 of 3) was 12906, the “Fluorescence competitive binding assay, OBP2 (raw fluorescence reading)” value (SfurOBP2; ligand concentration 16 (unit not given), replicate column 1 of 3) was 10605 and the “Fluorescence competitive binding assay, OBP2 (raw fluorescence reading)” value (SfurOBP2; ligand concentration 16 (unit not given), replicate column 2 of 3) was 10448. The “Fluorescence competitive binding assay, OBP2 (raw fluorescence reading)” value (SfurOBP2; ligand concentration 16 (unit not given), replicate column 3 of 3) was 11282, the “Fluorescence competitive binding assay, OBP2 (raw fluorescence reading)” value (SfurOBP2; ligand concentration 18 (unit not given), replicate column 1 of 3) was 14498 and the “Fluorescence competitive binding assay, OBP2 (raw fluorescence reading)” value (SfurOBP2; ligand concentration 18 (unit not given), replicate column 2 of 3) was 14899. The “Fluorescence competitive binding assay, OBP2 (raw fluorescence reading)” value (SfurOBP2; ligand concentration 18 (unit not given), replicate column 3 of 3) was 13250, the “Fluorescence competitive binding assay, OBP2 (raw fluorescence reading)” value (SfurOBP2; ligand concentration 20 (unit not given), replicate column 1 of 3) was 13545 and the “Fluorescence competitive binding assay, OBP2 (raw fluorescence reading)” value (SfurOBP2; ligand concentration 20 (unit not given), replicate column 2 of 3) was 12591. The “Fluorescence competitive binding assay, OBP2 (raw fluorescence reading)” value (SfurOBP2; ligand concentration 20 (unit not given), replicate column 3 of 3) was 11415, the “Fluorescence competitive binding assay, fluorescence intensity” value (SfurOBP3; ligand concentration 2) was 69046 and 56769 and 63691 and the “Fluorescence competitive binding assay, fluorescence intensity” value (SfurOBP3; ligand concentration 4) was 61024 and 72407 and 63576. For the same compound, the “Fluorescence competitive binding assay, fluorescence intensity” value (SfurOBP3; ligand concentration 6) was 62953 and 54664 and 55739, the “Fluorescence competitive binding assay, fluorescence intensity” value (SfurOBP3; ligand concentration 8) was 48630 and 46017 and 57385 and the “Fluorescence competitive binding assay, fluorescence intensity” value (SfurOBP3; ligand concentration 10) was 48455 and 41384 and 49192. For the same compound, the “Fluorescence competitive binding assay, fluorescence intensity” value (SfurOBP3; ligand concentration 12) was 44417 and 51591 and 51023, the “Fluorescence competitive binding assay, fluorescence intensity” value (SfurOBP3; ligand concentration 14) was 42917 and 40156 and 40042 and the “Fluorescence competitive binding assay, fluorescence intensity” value (SfurOBP3; ligand concentration 16) was 37264 and 50015 and 45340. For the same compound, the “Fluorescence competitive binding assay, fluorescence intensity” value (SfurOBP3; ligand concentration 18) was 66503 and 59244 and 47400, the “Fluorescence competitive binding assay, fluorescence intensity” value (SfurOBP3; ligand concentration 20) was 55843 and 55740 and 43544 and the IC50 (SfurOBP3; SfurOBP3, protein and 1-NPN both 2.0 µM, competitor 2-20 µM, read-out: IC50) was greater than 20 µM.
